Reference: ChEMBL document CHEMBL1151192, “Phorbasterones A-D, cytotoxic nor-ring A steroids from the sponge Phorbas amaranthus” (J Nat Prod, 2004)
In brackets after ≈: the same amount, converted by molar mass.

System: HCT-116
Assay: Cytotoxicity against human HCT116 cells after 72 hrs by MTS assay
Assay type: functional, cell-based
Conditions: HCT-116, 72 h

| SMILES | IC50 [µg/mL] |
| --- | --- |
| CCC(/C=C/[C@@H](C)[C@H]1CC[C@H]2[C@@H]3CC=C4C(=O)[C@](O)(C(=O)OC)C[C@]4(C)[C@H]3CC[C@]12C)C(C)C (mixture of isomers) [PHORBASTERONE C] | 1 |
| CCC(CC[C@@H](C)[C@H]1CC[C@H]2[C@@H]3CC=C4C(=O)[C@](O)(C(=O)OC)C[C@]4(C)[C@H]3CC[C@]12C)C(C)C (mixture of isomers) [PHORBASTERONE D] | 1 |
| COC(=O)[C@]1(O)C[C@@]2(C)C(=CC[C@H]3[C@@H]4CC[C@H]([C@H](C)/C=C/C(C)C(C)C)[C@@]4(C)CC[C@@H]32)C1=O (some centres undefined) [PHORBASTERONE A] | 1 (≈ 2.19 µM) |
| COC(=O)[C@]1(O)C[C@@]2(C)C(=CC[C@H]3[C@@H]4CC[C@H]([C@H](C)CCCC(C)C)[C@@]4(C)CC[C@@H]32)C1=O [PHORBASTERONE B] | 1 (≈ 2.25 µM) |
